A short description of data set [1]: Animal toxicity screen / MTD by intraperitoneal injection. The following applies: for MTD: intraperitoneal, mice, a = maximum dose due to poor solubility, b = acutely toxic with a single animal at 0.2 mg in 200 μL (about 6.0 mg/kg); for survival in toxicity screen: 0.2 mg in 200 μL 10 mM Tris buffer pH 7.5, intraperitoneal.
Description: Animal toxicity screens were performed by intraperitoneal injection of suitable compounds in C57BL/6NTac mice (each with an approximate weight of 30 g). For each animal, 0.2 mg of each compound in 200 μL 10 mM Tris buffer, pH 7.5 was used. […] These were further examined by injecting at least three mice with 200 μL of a freshly prepared aqueous solution of each compound at concentrations of 0.5 mg/mL, 2 mg/mL, 5 mg/mL, 10 mg/mL, 25 mg/mL and 50 mg/mL to determine MTD values.
The next data set relates to calf thymus Topo I. Kind of data set: Topoisomerase I relaxation of supercoiled DNA. Format: biochemical. The following applies: 0.62-3.08 μM. The protocol:
FIGS. 19 and 20 illustrate the ability of suitable compounds to modify Topo I and Topo II. […] For FIG. 19, lane M was the marker lane containing forms I, II and III of a DNA. For all other lanes, the DNA was supercoiled pUC18 at 30.8 μM per reaction. Lane 1 was, the DNA used was pUC18 at 30.8 μM base pairs per reaction, without compound or inhibitor. Lane 2 was DNA with Tope I and no compound. Lane 3 was DNA with inhibitor, CPT. Lane 4-6 included varying concentrations of P^4+ (3.08 μM, 1.54 μM and 0.62 μM, respectively). Lane 7-9 included varying concentrations of Q^4+ (3.08 μM, 1.54 μM and 0.62 μM, respectively).
Reaction conditions for FIGS. 19 and 20 included the addition of DNA and 5 units of calf thymus Topo I in the presence or absence of either a known inhibitor (CPT), P^4+ or Q^4+. Both P^4+ and Q^4+ were examined at varying concentrations, 0.62 μM-3.08 μM. Samples were incubated at 37 degrees Centigrade in an assay buffer (e.g., 10 mM Tri-HCl at pH 7.9, 150 mM NaCl, 1 mM EDTA, 0.1% BSA, 0.1 mM spermidine, and 5% glycerol) for about 30 minutes to allow for appropriate cleavage and religation. Relaxed intermediates were then trapped by adding 5 μL of a stopping buffer (e.g., 5% SDS, 0.05% bromophenol blue and 30% glycerol). […]

For data set [2], the system named is H358, a bronchioalveolar non-small cell lung cancer cell line. Kind of data set: MTT drug sensitivity assay. The data set is classed as cell-based. The conditions noted are these: 96 hours incubation; concentration that reduced formazan formation by 50%. On the procedure:
For cytotoxicity of suitable compounds a standard MTT drug sensitivity assay was performed on cancer cells, including H358, a bronchioalveolar non-small cell lung cancer cell line. Cell density in an aliquot of cells growing in log phase was determined by counting trypan blue excluding cells in a hemocytometer and 20,000 cells were plated into each well of 96-well flat-bottomed microliter plates.
In general terms: Formazan colour is commonly taken as a measure of viable cells.

The next data set deals with Topo II. The data set is described as follows: Topoisomerase II activity on supercoiled DNA. Format: biochemical. The following applies: 0.46-2.31 μM. The protocol:
As shown, M was the marker lane containing forms I, II and III of a DNA. For all other lanes, the DNA was supercoiled pUC18 at 30.8 μM base pairs per reaction. Lane 1 was DNA without compound or inhibitor. Lane 2 was DNA with Topo H and no compound. Lane 3 was DNA with inhibitor, m-AMSA. Lanes 4-6 included varying concentrations of P^4+ (2.31 μM, 1.15 μM and 0.46 μM, respectively). Lanes 7-9 included varying concentrations of Q^4+ (2.31 μM, 1.15 μM and 0.46 μM, respectively).
For conditions using Topo II, reactions were generally performed as described for Topo I, except that 23.1 μM of DNA was used per reaction along with either the inhibitor (m-AMSA) or varying concentrations of P^4+ or Q^4+ (0.46 to 2.31 μM) in a total volume of 20 μL. The assay buffer was altered for improved Topo II activity (using 10 mM Tris-HCl at pH 7.9, 50 mM NaCl, 50 mM KCl, 5 mM MgCl2, 0.1 mM EDTA, 0.15 mg mL BSA, and 1 mM ATP) as was the running buffer (using 100 mM Tris-borate, pH 8.3, 2 mM BDTA).

Data set [3] can be described thus: Cyclic voltammetry / reduction potentials. The data set is classed as physicochemical. The following applies: cyclic voltammetry in aqueous solution, versus normal hydrogen electrode. The text has this:
This is depicted in FIG. 4 in which compounds having a tatpp or tatpq bridging ligand are provided as examples. Preferred bridging ligands have modest potentials in order for them to be accessible in a cellular milieu. […] For TJ-7p of FIG. 2, a compound in which tatpq is the bridging ligand, the first two reductions were at 70 mV and −80 mV versus the normal hydrogen electrode. These potentials are modest and easily accessible in a cellular milieu.
The reduction potential for compounds is such that these compounds are accessible to one or more reducing agents, especially in biologic conditions. For example, the bridging ligand, tatpp, when bound by two ruthenium ions in P^4+, has a reduction potential […] of about −0.22 V versus Ag/AgCl in acetonitrile. An alternate charged form of P^4+, P^3+, has an E1/2 of about −0.71 V versus Ag/AgCl in acetonitrile. These E1/2 values of the complexes make them accessible to one or more suitable reducing agents in biologic conditions.

In a further data set the test system is supercoiled pUC18 DNA. Kind of data set: Modification (strand breaks) of supercoiled plasmid DNA, gel electrophoresis. The data set is classed as biochemical. The following applies: 12.8 μM, anaerobic, about one hour. The protocol: Referring now to FIG. 6, supercoiled DNA (0.154 mM base pairs) was modified by a diastereomeric mixture of the P^4+ complex in the presence and absence of a reducing agent. Lane M was the marker lane. Lane 1 was a DNA control without a reducing agent. Lane 2 included DNA without P^4+ under aerobic conditions (e.g., in the presence of oxygen or O2) with GSH, Lane 2′ included DNA with GSH (0.513 mM) without P^4+ under anaerobic conditions (e.g., hypoxia). Lanes 3, 4 and 5 were representative of modifications under aerobic (O2) conditions and lanes 2′, 3′, 4′ and 5′ were representative of modifications under anaerobic (hypoxia or absent O2) conditions. […]
Modification reactions were carried out in 0.5 mL Eppendorf tubes with 2 μL of a supercoiled pUC18 DNA (1 μg/1 μL) in a total volume of 20 μL using a 5 mM sodium phosphate buffer (pH 7). […] DNA was then dried for about 30 minutes and resuspended in about 40 μL of a storage buffer (e.g., 40 mM Tris-Cl, 1 mM EDTA at pH 8.0) with 65 μL of deionized water and 12 μL of a loading buffer (e.g., 30% glycerol in water with 0.1% w/v bromophenol blue), Each reaction was then evaluated by standard gel electrophoresis methods (e.g., loaded on 1% agarose gel stained with ethidium bromide and electrophoresed at about 80 volts for about 90 minutes using a Tris-acetate-EDTA buffer at pH 8.0). […]

The source of these data is patent publication US9816075B2, “Compounds with modifying activity enhanced under hypoxic conditions” (Board of Regents, The University of Texas System, priority 2005, dated 2017).

Marks after values point to notes of the source that are not given here.

For [Ru2(bpy)2(tpphz)(CO)4]^4+, the MTD in data set [1] is recorded as >6^a mg/kg.

The IC50 is the midpoint of a concentration-inhibition curve. High values mean lower potency, low ones higher potency. In the case of “[Ru2(phen)4tatpq]^4+ [[Ru2(phen)4(tatpq)]^4+]”, in data set [1], the “survival in toxicity screen” value is “survived”. Further, the “Topo I inhibition compared with camptothecin (CPT)” value in the data set with calf thymus Topo I is on record as “better than that of the known inhibitor, camptothecin”. For the same substance, in the data set with calf thymus Topo I (37 degrees Centigrade, about 30 minutes), the “Topo I inhibition, FIG. 19” value is “inhibited Topo I and its relaxation of supercoiled DNA”. Also, half-maximal inhibition in data set [2] (IC50) required 1 ± 0.1 µM. In addition, in the data set on Topo II, the “Topo II inhibition compared with amsacrine (m-AMSA)” value is given as “better than that of the known inhibitor, amsacrine”; the “Topo II inhibition, FIG. 20” value is “inhibited Topo II and its activity on supercoiled DNA”. In data set [3], this substance yielded a first reduction potential of 70 mV and a second reduction potential of −80 mV.

As to Iron(II)-Bleomycin [Fe-BLM], the “DNA modification in the absence of oxygen, FIG. 7” value in the data set on supercoiled pUC18 DNA is reported as “unable to modify or break DNA in the absence of oxygen”.

With “[Ru2(phen)4tatpp]^4+ [[Ru2(phen)4(tatpp)]^4+]”, in data set [1], the “survival in toxicity screen” value is “survived”. In data set [2], this substance came in with an IC50 of 8 ± 1 µM. Moreover, in data set [3], the first reduction potential was 170 mV and the second reduction potential is recorded as −180 mV.

In the case of [Ru2(bpy)2(tpphz)(CO)2(Cl)2]^4+, in data set [1], the MTD is given as <6^b mg/kg. Besides, the midpoint of inhibition in data set [2], the IC50, lay at 8 ± 1 µM.

As to [Ru2(bpy)2(tpphz)(C2O4)2], in data set [1], the MTD is >15^a mg/kg. Further, the midpoint of inhibition in data set [2], the IC50, lay at 100 ± 10 µM.

As to [Ru2(bpy)2(tpphz)(CH3CN)4]^4+, in data set [1], the MTD is listed as <6^b mg/kg. In data set [2], this substance had an IC50 of 21 ± 2 µM.
